In assay [1] the test system is Jurkat T cells overexpressing Bcl-2. In words: Western blot, fractionation, RT-PCR, immunostaining and IP in Bcl-2-overexpressing Jurkat T cells. It counts as cell-based, human. The settings on record: for cytoplasmic Bax-immunofluorescent signals: immunofluorescent staining. How it is done:
FIGS. 7A-7H show proteasome inhibitor LLnV induces Bax accumulation, cytochrome c release and PARP cleavage in Bcl-2-overexpressing Jurkat T cells. (FIGS. 7A-7C) Jurkat T cells overexpressing Bcl-2 (0 h) were treated with 50 μM LLnV for up to 8 h, followed by preparation of cytosol and mitochondrial fractions. Both fractions were immunoblotted first by an antibody to cytochrome c (Cyto C, MW 17 kDa; FIG. 7A and FIG. 7C) and then reblotted by anti-cytochrome oxidase subunit II (COX, MW 26 kDa; FIG. 7B). Note: 20 μg protein from the cytosol, and 40 μg protein from the mitochondrial, preparation was used in each lane. (FIGS. 7D-7G) Whole cell extracts (70 μg per lane) of the above treated cells were immunoblotted with specific antibodies to PARP (FIG. 7D), Bax (clone N-20; FIG. E), Bcl-2 (FIG. 7F), or actin (FIG. 7G). Molecular masses of PARP, the PARP cleavage fragment (p85), Bax, Bcl-2 and actin are 113, 85, 21, 26 and 40 kDa, respectively. Positions of protein markers are indicated at right. (FIG. 7H) Bcl-2-expressing Jurkat cells (Control) were treated with 50 μM LLnV for 8 h, followed by RT-PCR. For the first-strand cDNA synthesis, 0.2 (lanes 1, 4), 0.6 (lanes 2, 5) and 1.8 μg (lanes 3, 6) of the total RNA were used. The positions of Bax (538 bp) and G3PDH mRNA (983 bp) are indicated. Lane M is DNA molecular weight marker.
FIGS. 8A-8D show proteasome inhibition accumulates Bax to mitochondria/cytoplasm and increases interaction between Bax and Bcl-2 proteins. Jurkat cells (0 h; FIG. 8A and FIG. 8B) or Jurkat cells overexpressing Bcl-2 (0 h; FIG. 8C and FIG. 8D) were treated by either 10 μM lactacystin (FIGS. 8A-8C), 50 μM LLnV (FIG. 8D), or 50 μM LLM (FIG. 8A and FIG. 8B) for the indicated hours. (FIG. 8A and FIG. 8B) Western blotting with antibodies to PARP and Bax were performed as described in FIG. 7. (FIG. 8C) Immunohistochemistry (see MATERIALS AND METHODS). Localization of Bax protein (green) and nuclei (red) are shown. (FIG. 8D) Bax immunoprecipitates, prepared by an agarose-conjugated N-20 Bax antibody, were immunoblotted first with the 6A7 Bax antibody (upper) and then reblotted with a Bcl-2 antibody (lower).
Cell Culture and Drug Treatment: Human breast cancer MCF-7 cells, Jurkat T cells, and Jurkat T cells stably transfected with pRcCMV vector containing a complete human bcl-2 cDNA (obtained from Dr. Hong-gang Wang, Moffitt Cancer Center & Research Institute) were grown in RPMI 1640 growth medium (An et al., 1998). Treatment of cell with a proteasome inhibitor was performed as described (An et al., 1998; Dou et al., 1999).
Western blot analysis and Immunoprecipitation: Whole cell extract (An et al., 1996), whole tissue extracts (Loda et al., 1997), and cytosol and mitochondria fractions (Fang et al., 1998) were prepared as described. The enhanced chemiluminescence Western blot assay was performed as described previously (An et al., 1996). To perform a coupled immunoprecipitation-Western blot assay, a whole cell or tissue extract (200 microg protein) was first precleared by incubating with protein A plus protein G agarose beads (Calbiochem) at 4° C. for 2 hours. The collected supernatant was then incubated for at least 3 hours with either […] of agarose beads conjugated with the N20 Bax antibody (Santa Cruz Biotech), or the 6A7 Bax antibody, followed by incubation with protein A/protein G beads at 4° C. overnight. The washed Bax immunoprecipitates were boiled in SDS sample buffer and used for Western blotting with antibodies to Bax, Bcl-2 or ubiquitin.
Immunocytochemistry and Reverse Transcriptase-Polymerase Chain Reaction (RT-PCR): Immunocytochemistry was performed with the rabbit polyclonal Bax antibody (N20) and an FITO-labeled goat anti-rabbit antibody (Southern Biotech.; Birmingham, Ala.), followed by counter-staining nuclei with propidium iodide (Sigma) (Bossy-Wetzel et al., 1998). To perform RT-PCR, total RNA was isolated from Jurkat T cells by an Advantage RT-for-PCR kit (Clontech; palo Alto, Calif.). […]

Assay [2] has as its system human breast cancer (SK-BR-3, MDA-MB-468) cells. In words: cellular detachment of breast cancer cells. The settings on record: breast cancer versus normal (MCF-10A) cells. The class given is cell-based. How it is done: Proteasome inhibitors selectively induce apoptosis in human breast cancer, but not normal, cells. […] Cells of both human breast cancer lines became detached in a lactacystin-concentration-dependent manner (FIG. 3). No detachment was induced in the normal human breast cells MCF-10A after treatment with lactacystin for 48 hours (FIG. 3) or even 72 hours. Proteasome inhibition-induced detachment of breast cancer cells is due to apoptosis (An et al., in press).

Each structure is given as a SMILES string. Where a SMILES comes first, the peptide text is derived from it. [ ]: non-standard residue; d: D form. The star is where a group is joined. Nva = CCC[C@H](N)C(=O)O; Cbz = O=C(OCc1ccccc1)*

Turning to `CCC[C@@H](C=O)NC(=O)[C@H](CC(C)C)NC(=O)[C@H](CC(C)C)NC(=O)OCc1ccccc1` [LLnV] (Cbz-Leu-Leu-[Nva]-aldehyde), the “level of cytosolic cytochrome c” value in assay [1] (50 μM LLnV, 6 to 8 hours) is “increased”. Moreover, the “level of Bax protein (Bax/p21)” value in assay [1] (50 μM LLnV, 1 hour or longer, Western blot) is recorded as “increased”. In addition, the “Bax mRNA level” value in assay [1] (50 μM LLnV, 8 h, RT-PCR) was “remained unchanged”. Besides, in assay [1] (50 μM LLnV, Bax immunoprecipitation-Western blot), the “levels of Bax/p21 and Bax-bound Bcl-2 protein” value is on record as “significantly increased”. In assay [1] (50 μM LLnV, up to 8 h), the “induction of apoptosis (PARP cleavage)” value was “cleavage of PARP” and the “levels of the overexpressed Bcl-2 protein” value is given as “Little changes”. Also, the “cytoplasmic Bax-immunofluorescent signals” value in assay [1] is “markedly increased”. For the same compound, in assay [2], the cellular detachment entry is recorded as “selectively induced cellular detachment”.
For `CC(=O)N[C@@H](CSC(=O)[C@]1([C@@H](O)C(C)C)NC(=O)[C@H](C)[C@@H]1O)C(=O)O` [lactacystin], the “cytoplasmic Bax-immunofluorescent signals” value in assay [1] is “markedly increased”. For the same compound, in assay [2], the cellular detachment entry is “selectively induced cellular detachment”.

Values taken from patent US6692927B2, “Bax degradation involvement in tumor survival and progression” (University of South Florida, priority 2000, dated 2004).
